Results from paper PMC7060351, “Biochemical features of the novel Tail Tubular Protein A of Yersinia phage phiYeO3-12” (Scientific Reports, 2020).

What was measured:
TTPAgp11 [1] = molecular target: T1, TTPAgp11 (Yersinia phage phiYeO3-12, UniProt Q9T106); assay: nanoDSF thermal unfolding ([…] nm ratio); format: binding; conditions: 0.25 mg/ml protein, 0.15 mg/ml sugar; 2 °C/min from 20 to 95 °C; protein alone Tm 53.27 °C; inverted unfolding profile, aggregation
T1 construct: gene 11
T1 sequence (Q9T106 1-196): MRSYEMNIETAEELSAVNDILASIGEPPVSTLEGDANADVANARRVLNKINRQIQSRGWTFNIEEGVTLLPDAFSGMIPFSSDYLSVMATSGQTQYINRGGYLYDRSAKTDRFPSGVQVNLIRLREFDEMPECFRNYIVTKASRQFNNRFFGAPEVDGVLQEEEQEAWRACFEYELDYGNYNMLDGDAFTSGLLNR

TTPAgp11 [2] = molecular target: T1, TTPAgp11; assay: backreflection light scattering during nanoDSF melting scan (aggregation); format: binding; conditions: 0.25 mg/ml protein, 0.15 mg/ml sugar; 2 °C/min from 20 to 95 °C; no unfolding Tm obtained (NA); no scattering transition for protein alone (NA)
Text: backreflection light scattering during nanoDSF melting scan (aggregation) on TTPAgp11

TTPAgp11 [3] = molecular target: T1, TTPAgp11; assay: GC of released glucose after MTBSTFA derivatisation; format: biochemical; conditions: PBS, room temperature, 24 h; 20 µl of 47 µM protein, 100 µl of 1 mg/ml maltose in 0.2 ml

## CC(=O)N[C@H]1C(O)O[C@H](CO)[C@@H](O)[C@@H]1O (stereo partly drawn) [N-acetylglucosamine]
TTPAgp11 [1]
  Tm / Fluorescence ratio 350 nm/330 nm / [°C]: 36.41 °C

## OC[C@H]1O[C@H](O[C@H]2[C@H](O)[C@@H](O)C(O)O[C@@H]2CO)[C@H](O)[C@@H](O)[C@@H]1O (stereo partly drawn) [maltose]
TTPAgp11 [2]
  Tm / Scattering / [°C]: 36.26 °C
TTPAgp11 [3]
  % of maltose hydrolyzed: 15–18%
